In patent US20170144972A1, “METHODS OF LOWERING PROPROTEIN CONVERTASE SUBTILISIN/KEXIN TYPE 9 (PCSK9)” (Catabasis Pharmaceuticals, Inc., priority 2012, published 2017):

How the values were obtained:
PCSK9 = PCSK9 secretion assay in HepG2 cells (PCSK9 ELISA of supernatant); assay type: cell-based; settings: for lowering of PCSK9 (FIG. 1): 25 and 50 μM
Procedure: HepG2 cells (from ATCC, Catalog no. HB-8065) were maintained in DMEM (Invitrogen) supplemented with 10% fetal bovine serum (Invitrogen). The day prior to the PCSK9 assay, cells are seeded in 96-well collagen coated plates at 25,000 cells/well.
The compounds of the invention were stored at −20° C. until used. The test article compound was dissolved in 100% ethanol to a 50 mM stock solution. This was then diluted in FBS to a final concentration of 1 mM. This solution was placed in a sonicating water bath for 30 minutes. Subsequent dilutions were then made in FBS supplemented with an equivalent volume of ethanol and mixed by vortexing.
HepG2 cells were seeded onto a collagen coated 96-well plate (Becton Dickinson, Catalog no. 35-4407) the day prior to the assay, as described above. The next day, the cell medium was removed, washed once with […] serum free DMEM to remove any residual PCSK9, and replaced with […] of serum free DMEM. Ten microliters of each compound concentration prepared in FBS was then added. Each concentration of compound was tested in triplicate. The compound was incubated with the cells overnight for 16 hours. Following this incubation, 10 µL of AlamarBlue was added to each well and cells incubated for another 2 hours. The plates were then removed and AlamarBlue fluorescence was measured (excitation, 550 nm and […]) to assess cell viability. Cell culture supernatant was then diluted […] 1×RDSP Calibrator Diluent and PCSK9 ELISA was then performed with […] of this diluted sample, as per the manufacturer's instructions. The ELISA was measured on a Victor X5 multilabel plate reader (PerkinElmer) at an absorbance of 450 nm with background correction measured at 550 nm (The PCSK9 Elisa kits can be purchased from R&D System, Catalog no. DPC900).
Alternatively, an IC50 could also be obtained when this type of assay was carried out using at least 6 different concentrations of the test compounds. Table 1 lists the IC50 values for the compounds tested in this assay.

APOE*3Leiden mice = experiment: Plasma cholesterol and triglycerides in ApoE3Leiden mice on Western type diet, 2 and 4 weeks of treatment; assay type: in vivo; settings: female APOE*3Leiden mice, WTD, I-8 0.75% w/w in diet, atorvastatin 0.0015% w/w in diet
Procedure: The study was conducted using female APOE*3Leiden mice (groups of each n=10) and one untreated reference control group on chow (n=5). To induce dyslipidemia, a high cholesterol Western type diet containing 1% cholesterol, 15% cacao butter, 40.5% sucrose and 1% corn oil (WTD) was fed to the mice for a total experimental period of 20 weeks (of which 4 weeks are a run-in period).
The dyslipidemic mice were grouped on the basis of plasma cholesterol at t=0 assayed in 4 h fasting blood. Mice with low cholesterol after the run-in period were excluded so that homogenous experimental groups were obtained. A group of reference mice (n=5) remained on a chow diet during the complete study period (normolipidemic reference mice).
This mix was then added to the master mix (containing the rest of the ingredients) and mixed thoroughly. The diet was frozen to −20° C. On the subsequent day, the diet was broken into small pellets (approx 5 g per piece) and freeze dried, and stored in vacuum sealed bags (approx 500 g) at −20° C. until use. The diets were refreshed daily and unused diet was discarded.
1) Body weight at −4, 0, 2, 4 weeks 2) Food intake (g/day/mouse) at 0, 2, 4 weeks (per cage) 3) Plasma total cholesterol at −4, 0, 2, 4 weeks (individually) 4) Plasma triglycerides at −4, 0, 2, 4 weeks (individually) 5) Lipoprotein profiles at 0 (pool of all animals) and 4 weeks (cholesterol distribution over VLDL, LDL and HDL-sized particles, analysis on group level).
EDTA plasma was collected in weeks −4, 0, 2 and 4 weeks.

ApoE*3 Leiden mice = experiment: Liver weight, plasma cholesterol and triglycerides of ApoE*3 Leiden mice, 16 weeks of treatment; assay type: in vivo; settings: I-8 in WTD at 7.5 g/kg
Procedure: The same experimental design used in example 6 was used. Two treatment groups were used (n=15). The control animals were kept on a Western type diet (WTD) consisting of 1% cholesterol, 15% cacao butter, 40.5% sucrose, and 1% corn oil. For the treatment group, compound I-8 was administered in the above WTD at a ratio of 7.5 g/kg. Animals were maintained on the WTD or treatment group for 16 weeks. At the conclusion of the study, plasma cholesterol and triglyceride levels were recorded, as well as the weight of the liver. There was a significant decrease in plasma cholesterol, triglyceride levels as well as liver weight in the treatment group. After 16 weeks of treatment, the cholesterol level of the treatment group was 420 mg/dL, compared with a level of 750 mg/dL for the control group; the triglyceride level was 110 mg/dL, compared with a level of 160 mg/dL for the control group.

[1] = tested on: Zucker fa/fa Rat model of Dyslipidemia; experiment: Plasma triglyceride level of the Zucker fa/fa rat model of dyslipidemia; assay type: in vivo; settings: male Zucker rats, po qd, 10, 30, 100 and 300 mg/kg, blood sample day 4
Procedure: Male Zucker rats (HsdHlr: Zucker-Lepr̂fa) between 8-10 weeks of age were purchased from Harlan and maintained on Purina Rodent Diet (5001) for the duration of the study. Animals were randomized and assigned to treatment arms based on body weight and plasma triglyceride (TG) levels (n=8). Inclusion criteria for the study include body weight >300 grams and fed TG levels in plasma >800 mg/dL. Dosing will be initiated on day 1 and continue through day 5. Dosing will be daily (qd) by oral gavage (po) for all treatment arms (Compound I-8 was administered orally at 4 different doses, 10, 30, 100 and 300 mg/kg; in addition, a combination of niacin/EPA in a ratio of 100/200 mg/kg was also employed). Body weights will be measured for all rats on days 1 through 5. On day 4, a blood sample (fed) will be collected from each rat, processed for plasma and stored at −80° C. Plasma triglyceride level was determined from commercial kits using standard protocols. […] Because compound I-8 was able to lower fed plasma triglyceride, it is useful to treat dyslipidemia as well as other diseases such as type I hyperlipoproteinemia and type 5 hyperlipoproteinemia.

## CC/C=C\C/C=C\C/C=C\C/C=C\C/C=C\CCCC(=O)NCCNC(C)=O [Compound A, (5Z,8Z,11Z,14Z,17Z)—N-(2-acetamidoethyl)icosa-5,8,11,14,17-pentaenamide, reference compound]
PCSK9; HepG2 cells, highest tested concentration of 50 μM
  activity toward PCSK9 (FIG. 1): essentially no activity

## CC/C=C\C/C=C\C/C=C\C/C=C\C/C=C\CCCC(=O)NCCNC(=O)c1cccnc1 [Compound I-8, N-(2-(5Z,8Z,11Z,14Z,17Z)-eicosa-5,8,11,14,17-pentaenamidoethyl)nicotinamide]
APOE*3Leiden mice; 2 weeks
  plasma cholesterol at t=2 weeks (FIG. 4): statistically significant reduction
APOE*3Leiden mice; 4 weeks
  plasma cholesterol after 4 weeks of treatment (FIG. 5): Comparable level of cholesterol reduction
  plasma triglyceride levels after 4 weeks of treatment (FIG. 6): significant reduction
ApoE*3 Leiden mice
  liver weight (FIG. 7): statistically significant drop
[1]
  fed plasma triglyceride level (FIG. 3): dose dependent decrease
PCSK9; HepG2 cells incubated with 10 μM of atorvastatin along with test article
  PCSK9 levels in HepG2 cells incubated with atorvastatin (FIG. 2): decrease PCSK9 levels in a dose response manner to well below the atorvastatin level induced levels
PCSK9; HepG2 cells
  lowering of PCSK9 (FIG. 1): significant lowering of PCSK9

## CC/C=C\C/C=C\C/C=C\C/C=C\C/C=C\CCCC(=O)NCCNC(=O)c1ccccc1 [II-1, N-(2-((5Z,8Z,11Z,14Z,17Z)-icosa-5,8,11,14,17-pentaenamido)ethyl)benzamide]
PCSK9; HepG2 cells
  lowering of PCSK9 (FIG. 1): significant lowering of PCSK9

## CC(C)c1c(C(=O)Nc2ccccc2)c(-c2ccccc2)c(-c2ccc(F)cc2)n1CC[C@@H](O)C[C@@H](O)CC(=O)O [atorvastatin, reference compound]
PCSK9; HepG2 cells, 10 μM atorvastatin alone
  PCSK9 secretion (FIG. 2): increases PCSK9 secretion
